Data taken from patent US20230082130A1, “USE OF C[…] TO TREAT OR PREVENT FUNGAL GROWTH OF C. ALBICANS” (Demetrix, Inc., priority 2021, published 2023).
≈ marks a conversion by molar mass, not a printed value. Read-outs that look alike come from different tables or passages of the source.

System: C. albicans
Assay: minimum inhibitory concentration (MIC) assay against C. albicans
Type: cell-based, Candida albicans
Details: growth inhibition of C. albicans, assay performed by Charles River Laboratories
Procedure: To determine the ability of the cannabinoid compounds described herein to reduce, inhibit, or eliminate, C. albicans a minimum inhibitory concentration (“MIC”) assay was performed. […] The assay was performed by Charles River Laboratories International (Wilmington, Mass.) in accordance with industry standards.

[1] = Candida albicans, read-out: MIC

(+)-cannabidiol [(+)-CBD]
MIC: >200 µg/mL

CCCc1cc(O)c(C/C=C(\C)CCC=C(C)C)c(O)c1C(=O)O [CBGVA, cannabigerovarinic acid]
MIC: >200 µg/mL

CCCCCc1cc(O)c(C/C=C(\C)CCC=C(C)C)c(O)c1 [CBG, cannabigerol]
MIC [1]: > 200 µg/mL | MIC: >200 µg/mL

CCCCCc1cc(O)c(C/C=C(\C)CCC=C(C)C)c(O)c1C(=O)O [CBGA, cannabigerolic acid]
MIC [1]: > 200 µg/mL | MIC: >200 µg/mL

CCCCCc1cc(O)c2c(c1)OC(C)(CCC=C(C)C)C=C2 (centres unmarked) [CBC, cannabichromene]
MIC [1]: > 200 µg/mL | MIC: >200 µg/mL

CCCCCc1cc2c(c(O)c1C(=O)O)-c1cc(C)ccc1C(C)(C)O2 [CBNA, cannabinolic acid]
MIC: >200 µg/mL

CCCCc1cc(O)c(CC=C(C)CCC=C(C)C)c(O)c1 [CBG-C4, cannabigerol butyl]
MIC: 200 µg/mL (≈ 661 µM)

CCCCCc1cc(O)c2c(c1)OC1(C)CCC3C1C2C3(C)C (centres unmarked) [CBL, cannabicyclol]
MIC [1]: > 200 µg/mL | MIC: >200 µg/mL

CCCc1cc(O)c(C/C=C(\C)CCC=C(C)C)c(O)c1 [CBGV, cannabigerivarin]
MIC: 50 µg/mL (≈ 173 µM)

C=C(C)[C@@H]1CCC(C)=C[C@H]1c1c(O)cc(CCCCC)c(C(=O)O)c1O [CBDA, cannabidiolic acid]
MIC [1]: > 200 µg/mL | MIC: >200 µg/mL

C=C(C)[C@@H]1CCC(C)=C[C@H]1c1c(O)cc(CCC)c(C(=O)O)c1O [CBDVA, cannabidivarinic acid]
MIC: >200 µg/mL

CCCCCc1cc2c(c(O)c1C(=O)O)C=CC(C)(CCC=C(C)C)O2 (centres unmarked) [CBCA, cannabichromenic acid]
MIC: >200 µg/mL

C=C(C)[C@@H]1CCC(C)=C[C@H]1c1c(O)cc(CCCCC)cc1O [CBD, cannabidol]
MIC: 200 µg/mL (≈ 636 µM)

CCCCCc1cc(O)c2c(c1)OC(C)(C)c1ccc(C)cc1-2 [CBN, cannabinol]
MIC [1]: > 200 µg/mL | MIC: >200 µg/mL

CCCCCc1cc2c(c(O)c1C(=O)O)C1C3C(CCC3(C)O2)C1(C)C (centres unmarked) [CBLA, cannabicyclolic acid]
MIC: >200 µg/mL

C=C(C)[C@@H]1CCC(C)=C[C@H]1c1c(O)cc(CCC)cc1O [CBDV, cannabidivarin]
MIC (Candida albicans): < 25 µg/mL

CCCCc1cc(O)c(C/C=C(\C)CCC=C(C)C)c(O)c1C(=O)O [CBGA-C4, cannabigerolic acid butyl]
MIC: >200 µg/mL
